These results are taken from patent US11083718B2, “Betahistine, or a pharmaceutically acceptable salt thereof, and a monoamine oxidase inhibitor, for use in the treatment or prevention of one or more symptoms of vertigo in a subject” (INTRABIO LTD, priority 2017, dated 2021).

The subject of data set [1] is vertigo episodes related to Menière's disease. Particulars: daily doses 2×24 mg or 3×48 mg; nine months; cited from earlier work.
The conditions of data set [2]: cited from earlier work.
Data set [3] concerns acute attacks of vertigo in patients with Menière's disease. The data set is described as follows: Observational study: high-dosage betahistine monotherapy versus lower-dosage betahistine plus selegiline. The format is in vivo, human. On the procedure:
Betahistine dihydrochloride tablets were obtained from Abbott (Vasomotol 24 mg tablets). Selegiline hydrochloride tablets were obtained from Hexal.
Studies by the Applicant investigated the benefits of a high-dosage betahistine monotherapy compared with those of a lower dosage of betahistine in combination with the MAO B inhibitor (MAO-B) selegiline on the frequency of acute attacks of vertigo in patients with Menière's disease (MD).
More specifically, studies investigated the effect of combination therapy in 13 subjects receiving 5 mg per day selegiline hydrochloride (either as one tablet at night, or half a tablet in the morning and half a tablet at night), in conjunction with varying amounts of betahistine dihydrochloride per day (amounts ranging from n=3 to 36, where n is the number of 24 mg tablets per day). All subjects had previously received treatment with betahistine dihydrochloride monotherapy (in amounts ranging from n=9 to 80, where n is the number of 24 mg tablets per day), and the number of vertigo attacks per month were recorded during a three month period of monotherapy prior to commencement of combination treatment. Following combination treatment, the subjects then recorded the number of vertigo attacks per month during the last two months of combination treatment.
The 13 patients in this observational study fulfilled the current diagnostic criteria of MD [48]. Patients with the diagnosis of other peripheral or central vestibular disorders, such as vestibular migraine, benign paroxysmal positional vertigo, paroxysmal brainstem attacks, or functional dizziness, were not included. Patients suffering from known contraindications or hypersensitivity to betahistine, such as bronchial asthma, pheochromocytoma, or treatment with other antihistaminic drugs, ulcer of the stomach or duodendum, or severe dysfunction of liver or kidney were also not treated with betahistine. Patients with known contraindications (e.g., use of meperidine or other opioids, tricyclic antidepressants or non-selective MAOls, selective serotonin re-uptake inhibitors) or hypersensitivity to selegiline were not treated with this agent.
Based on the results of the BEMED trial (showing that betahistine 48 mg tid is evidently not effective) the study initially started with a dosage of 96 mg tid in all patients. During the three- to six-monthly follow-up examinations the daily dosages were adjusted according to the patient's response (approach: “titration” of attacks of vertigo). Patients had been treated for at least 18 months with high dosages of betahistine-dihydrochloride and had ≤1 attacks for at least three months. An initial dosage of 5 mg/day selegiline hydrochloride was chosen (approved dosage for Parkinson's disease is 5 to 10 mg/d). In parallel the dosage of betahistine was reduced to about a tenth of the initial dosage. The design of the observational study was approved by the local ethics committee. Follow-up examinations were after 1 month and then every 3 months to check the efficacy of the treatment and the side-effects and to adjust the betahistine dosage if necessary. Ideally, the objective was to achieve ≤1 attack per three months.

“And” between values parts separate entries of the source, which are not always exact repeats. Identical values can stand only once.

On to `CNCCc1ccccn1` [betahistine, 2-[2-(methylamino)ethyl]pyridine], for which the “effect on time course of vertigo episodes compared with placebo” value in data set [1] is given as “does not change the time course of vertigo episodes”. For the same molecule, the plasma concentrations result in data set [2] (betahistine without MAO inhibitor) was “less than 0.5 ng/ml”. Further, in data set [2] (normally almost complete), the first-pass effect is 99%. In data set [3] (13 patients), the “daily betahistine-dihydrochloride dosage required to achieve a treatment response, mean” value was 895.4 mg/day and the “daily betahistine-dihydrochloride dosage required to achieve a treatment response, mean in tablets” value is 37.3 24-mg tablets per day. The “mean daily dosage of betahistine-dihydrochloride to respond to treatment (≤1 attack per three months), FIG. 1” value in data set [3] (13 patients, per day) was found to be 895.4 mg. In addition, the tolerability result in data set [3] (216 to 1920 mg per day) is reported as “well tolerated”. The “patients with fullness of the stomach” value in data set [3] (216 to 1920 mg per day, 13 patients) was 4 patients. Moreover, the “Dosage of betahistine (monotherapy) required that the patient had a significant effect before the combined treatment” value in data set [3] (individual patients 1-13 with Menière's disease, tablets per day) was 80 n of 24-mg tablets and 30 n of 24-mg tablets (3×) and 9 n of 24-mg tablets and 36 n of 24-mg tablets and 60 n of 24-mg tablets (2×) and 24 n of 24-mg tablets and 18 n of 24-mg tablets (2×) and 50 n of 24-mg tablets and 40 n of 24-mg tablets.
